Results published in publication PMC4605517 (PLoS ONE, 2015).
No end group written: not given here. FLAG = FLAG epitope tag (3XFLAG, N-terminal)

Tests used:
[1] = test system: multiple myeloma and ovarian cancer xenografts; conditions: ref [22]; cited from earlier work
From the text: (§1) hRpn13 functions in ovarian and colorectal cancer proliferation, and its knockdown triggers apoptosis in these and other cancer cell lines.

[2] = test system: Rpn13 interdomain interactions; conditions: ref [22]; cited from earlier work
From the text: as §1

[3] = test system: ubiquitin-mediated protein degradation; conditions: ref [22]; cited from earlier work
From the text: as §1

[4] = test system: Rpn13 Cys88; conditions: ref [22]; cited from earlier work
From the text: as §1

[5] = test system: proteasome subunit hRpt3; experiment: anti-FLAG immunoprecipitation, immunoprobed for endogenous hRpt3; assay type: cell-based, human; conditions: 293T cells; anti-FLAG IP; Fig 5A
Procedure: (§2) The DNA fragment encoding amino acid 916 to 953 of hRpn2 was amplified by PCR and cloned into the bacterial expression vector pRSET and mammalian expression vector p3XFLAG-CMV7.1. Antibodies used in this study include anti-FLAG (Sigma), anti-hRpn2 (cell signaling), anti-hRpt3 (Abcam), and anti-hRpn13 (Abcam).
(§3) 293T cells (purchased from ATCC) were cultured in DMEM supplemented with 10% fetal bovine serum at 37°C in a humidified atmosphere and 5% CO2. Plasmid DNA was transfected into 293T cells using Lipofectamine2000 (Invitrogen) according to the manufacturer’s instruction. Cells were harvested by gentle centrifugation at 500g for 5 minutes at 4°C after washing with PBS, and cell pellets were resuspended in 1% Triton-TBS buffer (50 mM Tris, pH7.5, 150 mM NaCl, 1 mM EDTA and protease inhibitor cocktail) followed by rocking at 4°C for 30 minutes. The supernatant was collected following centrifugation at 16,000g for 10 minutes and incubated with antibodies at 4°C overnight. Protein G sepharose beads (Sigma) were used to pull down interacting proteins by 3-hour incubation at 4°C. After extensive washing with 1% Triton TBS buffer, SDS-PAGE loading buffer was used to elute proteins from beads for immunoblotting. […]

[6] = test system: proteasome subunit hRpn2; experiment: anti-FLAG immunoprecipitation, immunoprobed for endogenous hRpn2; assay type: cell-based, human; conditions: 293T cells; anti-FLAG IP; Fig 5A
Procedure: as §2, §3

[7] = test system: endogenous hRpn13; experiment: anti-FLAG immunoprecipitation, immunoprobed for endogenous hRpn13; assay type: cell-based, human; conditions: 293T cells transfected with p3XFLAG-CMV7.1 plasmid; anti-FLAG IP, anti-Rpn13 immunoblot
Procedure: (§4) 293T cells (purchased from ATCC) were cultured in DMEM supplemented with 10% fetal bovine serum at 37°C in a humidified atmosphere and 5% CO2. Plasmid DNA was transfected into 293T cells using Lipofectamine2000 (Invitrogen) according to the manufacturer’s instruction. Cells were harvested by gentle centrifugation at 500g for 5 minutes at 4°C after washing with PBS, and cell pellets were resuspended in 1% Triton-TBS buffer (50 mM Tris, pH7.5, 150 mM NaCl, 1 mM EDTA and protease inhibitor cocktail) followed by rocking at 4°C for 30 minutes. The supernatant was collected following centrifugation at 16,000g for 10 minutes and incubated with antibodies at 4°C overnight. Protein G sepharose beads (Sigma) were used to pull down interacting proteins by 3-hour incubation at 4°C. After extensive washing with 1% Triton TBS buffer, SDS-PAGE loading buffer was used to elute proteins from beads for immunoblotting.
The resulting plasmid was transfected into 293T cells and the cell lysate immunoprecipitated with anti-FLAG antibody.

[8] = test system: ubiquitinated proteins in 293T cells; experiment: accumulation of ubiquitinated proteins, immunoblot of cell lysates; assay type: cell-based, human; conditions: 293T cells transfected with HA-ubiquitin and peptide plasmid; anti-ubiquitin immunoblot, actin loading control; Fig 6B
Procedure: as §4
We next tested whether over-expression of the hRpn2-derived peptide in 293T cells leads to the accumulation of ubiquitinated proteins. Lysates from cells transfected with HA-ubiquitin alone or together with either FLAG-hRpn2 (916–953) WT or F948Stop were subjected to immunoblotting with anti-ubiquitin antibody. Cells expressing F948Stop were used as a negative control, and immunoblotting with anti-actin antibody to confirm equivalent loading.

[9] = test system: hRpn2 in the proteasome; experiment: anti-hRpt3 immunoprecipitation of proteasome, immunoprobed for hRpn2; assay type: cell-based, human; conditions: 293T cells over-expressing peptide; anti-hRpt3 IP; Fig 6A
Procedure: as §2
as §3, with “4°C.” for “4°C. After extensive washing with 1% Triton TBS buffer, SDS-PAGE loading buffer was used to elute proteins from beads for immunoblotting.”
(§5) We next tested whether over-expression of the hRpn2-derived peptide depletes hRpn13 from the proteasome. For this purpose, we immunoprecipitated proteasome by anti-hRpt3 antibody and detected the presence of hRpn13 by immunoprobing with anti-hRpn13 antibody.

[10] = test system: hRpn13 at the proteasome; experiment: anti-hRpt3 immunoprecipitation of proteasome, immunoprobed for hRpn13 (displacement); assay type: cell-based, human; conditions: 293T cells over-expressing peptide; anti-hRpt3 IP, anti-hRpn13 immunoblot; Fig 6A
Procedure: as §2
as §3, with “4°C.” for “4°C. After extensive washing with 1% Triton TBS buffer, SDS-PAGE loading buffer was used to elute proteins from beads for immunoblotting.”
as §5

[11] = target: T1, hRpn13 (1–150) (human, UniProt Q16186 1-150); experiment: SEC + other: LC-MS; hRpn2 (916-953):hRpn13 Pru complex passed over a size exclusion column after mixing to remove excess component; molar ratio evaluated by LC-MS; conditions: both partners purified
T1 construct: human Rpn13/Adrm1, Pru (pleckstrin-like receptor for ubiquitin) domain, residues 1-150; also called hRpn13 Pru domain; hRpn13 Pru

[12] = target: T1, hRpn13 (1–150); experiment: ITC; 200 μM hRpn2 (916-953) injected into 20 μM hRpn13 (1-150) in the cell; 25°C; 20 mM sodium phosphate, 50 mM NaCl, 10 mM βME, pH 6.5; one-site fit; conditions: both partners purified

T1 sequence (Q16186 1-150): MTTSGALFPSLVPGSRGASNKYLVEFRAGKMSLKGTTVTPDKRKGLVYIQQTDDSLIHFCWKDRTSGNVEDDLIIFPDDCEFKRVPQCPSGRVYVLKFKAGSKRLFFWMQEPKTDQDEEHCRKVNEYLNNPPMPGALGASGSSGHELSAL

In the case of `Cl.N[C@@H](Cc1ccccc1)C(=O)N1C/C(=C/c2ccc(Cl)c(Cl)c2)C(=O)/C(=C\c2ccc(Cl)c(Cl)c2)C1` [RA190], the “growth of multiple myeloma and ovarian cancer xenografts” value [1] is given as “restricts growth of multiple myeloma and ovarian cancer xenografts”, the “effect on Rpn13 interdomain interactions” value [2] is given as “abrogates Rpn13 interdomain interactions” and the “effect on ubiquitin-mediated protein degradation” value [3] is given as “inhibits ubiquitin-mediated protein degradation”. For the same molecule, the “covalent attachment to Rpn13” value [4] was “covalently attaches to Rpn13 Cys88”.

With “FLAG-hRpn2 (916–953) WT: hRpn2 (916–953) fragment in frame with an N-terminal FLAG tag, expressed from p3XFLAG-CMV7.1 in 293T cells ({FLAG}-DTSEDIEELVEPVAAHGPKIEEEEQEPEPPEPFEYIDD; UniProt Q99460 916-953, looked up, fragment)” the “immunoprecipitation of endogenous hRpt3” value [5] was “neither of these RP components was immunoprecipitated by the peptide”, the “immunoprecipitation of endogenous hRpn2” value [6] was “neither of these RP components was immunoprecipitated by the peptide” and the “immunoprecipitation of / interaction with endogenous hRpn13” value (“immunoprecipitation of / interaction” for short) [7] was “confirmed the interaction of the hRpn2-derived peptide with endogenous hRpn13 in 293T cells”. For the same molecule, the “presence of ubiquitinated proteins in cell lysate” value [8] was “increase in the presence of ubiquitinated proteins”, the “assembly of hRpn2 into the proteasome” value [9] was “not affected by expression of the hRpn2-derived peptide” and the “amount of hRpn13 at the proteasome” value [10] was “significantly reduced the amount of hRpn13 at the proteasome”.

In the case of “F948 with arginine: FLAG-hRpn2 (916–953) variant with F948 replaced with arginine ({FLAG}-DTSEDIEELVEPVAAHGPKIEEEEQEPEPPEPREYIDD; UniProt Q99460 916-953, looked up, variant F948R)”, the “immunoprecipitation of / interaction” value [7] is reported as “unable to immunoprecipitate endogenous hRpn13 from 293T cells”.

In the case of “F948Stop: FLAG-hRpn2 (916–953) variant with F948 replaced with a stop codon; negative control (DTSEDIEELVEPVAAHGPKIEEEEQEPEPPEP; not fully specified (N-terminus))”, the “immunoprecipitation of / interaction” value [7] is reported as “does not bind hRpn13”, the “presence of ubiquitinated proteins in cell lysate” value [8] is reported as “increase was not observed” and the “amount of hRpn13 at the proteasome” value [10] is reported as “does not deplete hRpn13 from proteasome”.

B1: hRpn2 (916–953) (peptide)
chain: GPGSDTSEDIEELVEPVAAHGPKIEEEEQEPEPPEPFEYIDD
notes: amino acids that remained at the N-terminal end from the PreScission protease tag after cleavage; human Rpn2/PSMD1, proteasome PC repeat protein, residues 916-953 (the C-terminal 38 amino acids); also called hRpn2-derived peptide; 38-amino acid peptide derived from the C-terminus of hRpn2/PSMD1; source: E. coli, purified (glutathione S-sepharose, PreScission cleavage, Superdex 75); not shown: …
In the case of B1, the “stoichiometry N” value [11] is reported as 1 and the Kd [12] is reported as 12 nM.
